In ChEMBL document CHEMBL4406882, “The plant-derived chalcone Xanthoangelol targets the membrane of Gram-positive bacteria” (Bioorg Med Chem, 2019):
The source made the active and inactive calls. No cut-off for these calls is given here.

Test system: Staphylococcus aureus
Assay: Induction of membrane integrity impairment in methicillin-resistant Staphylococcus aureus ATCC 700699 at 3.125 to 12.5 uM measured for 30 mins by DiOC2(3) probe based fluorescence assay
Format: functional, organism-based

SMILES: N#CC(C#N)=NNc1cccc(Cl)c1
- Activity: Active
